Data as given in patent US20230031406A1, “COMPOUNDS AND COMPOSITIONS FOR TREATING CONDITIONS ASSOCIATED WITH NLRP ACTIVITY” (Novartis AG, priority 2018, published 2023).
Where two headings read alike, the source gives them in different places. Each block holds one compound with its values, some of them ahead of it.

Test system: PMA-differentiated THP-1 cells
Test: IL-1β production in PMA-differentiated THP-1 cells stimulated with gramicidin (hTHP-1 assay containing 2% fetal bovine serum; Procedures 1 and 2)
Assay type: cell-based, human
Details: 2% fetal bovine serum
Summary of the method: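 PMA 20 ng/ml 16-18 h → trypsinise → 50,000 cells/well, RPMI/2% FBS; cpd 1 h (11-pt, 100–0.0017 μM; DMSO 0.37%); gramicidin 5 μM, 2 h; spin; supernatant IL-1β via HTRF.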

[1] = Table B3, hTHP-1 assay, class symbols, read-out: IC50
[2] = Table B4, class symbols, read-out: hTHP-1 IC50
[3] = Homo sapiens, THP-1, Table B3, hTHP-1 assay, class symbols, read-out: IC50
[4] = Table B2, class symbols, read-out: hTHP-1 IC50
[5] = Homo sapiens, THP-1, Table B2, class symbols, read-out: hTHP-1 IC50
[6] = Homo sapiens, THP-1, Table B1, class symbols, read-out: Average IC50 of compounds in hTHP-1 assay: hTHP-1 IC50

IC50 (Homo sapiens, THP-1, Table B4, numeric bounds, read-out: hTHP-1 IC50): > 30 µM
SMILES: C[C@@H]1CCc2c1nc1c(c2NC(=O)N=S(N)(=O)c2nn(-c3ccccc3)cc2F)CCC1 (single isomer, unassigned) [Example 792, (S) or (R)-4-fluoro-N′-(((R)-3-methyl-1,2,3,5,6,7-hexahydrodicyclopenta[b,e]pyridm-8-yl)carbamoyl)-1-phenyl-1H-pyrazole-3-sulfonimidamide]

IC50 [1]: 1 to 5 µM
SMILES: CCc1c(C(F)(F)F)nc2c(c1NC(=O)N=S(N)(=O)c1nn(C(F)F)cc1F)CCC2 (single isomer, unassigned) [Example 709, (R) or (S)-1-(difluoromethyl)-N′-((3-ethyl-2-(trifluoromethyl)-6,7-dihydro-5H-cyclopenta[b]pyridin-4-yl)carbamoyl)-4-fluoro-1H-pyrazole-3-sulfonimidamide]

IC50 [2]: 1 to 5 µM
SMILES: Cc1c(C(F)(F)F)nc2c(c1NC(=O)N=S(N)(=O)c1nn(-c3ccccc3)cc1F)CCC2 (single isomer, unassigned) [Example 783, (R) or (S)-4-fluoro-N′-((3-methyl-2-(trifluoromethyl)-6,7-dihydro-5H-cyclopenta [b]pyridin-4-yl)carbamoyl)-1-phenyl-1H-pyrazole-3-sulfonimidamide]

IC50 [3]: 1 to 5 µM
SMILES: CC(C)n1nc(S(N)(=O)=NC(=O)Nc2c3c(nc4c2CCC42CC2)CCC3)cc1CO (stereo not shown) [Example 595, 5-(Hydroxymethyl)-1-isopropyl-N′-((1′,5′,6′,7′-tetrahydro-2′H-spiro[cyclopropane-1,3′-dicyclopenta[b,e]pyridin]-8′-yl)carbamoyl)-1H-pyrazole-3-sulfonimidamide]

IC50 (Homo sapiens, THP-1, Table B1, numeric bounds, read-out: Average IC50 of compounds in hTHP-1 assay: hTHP-1 IC50): > 30 µM
SMILES: Cc1c(-c2ccccc2)nc2c(c1NC(=O)N=S(N)(=O)c1cnc(C(C)(C)O)s1)CCC2 (stereo not shown) [Compound 143, 2-(2-hydroxypropan-2-yl)-N′-((3-methyl-2-phenyl-6,7-dihydro-5H-cyclopenta[b]pyridin-4-yl)carbamoyl)thiazole-5-sulfonimidamide]

IC50 [4]: 0.04 to 0.2 µM
SMILES: CCn1cc(Cl)c(S(N)(=O)=NC(=O)Nc2c(C)c(C(F)(F)F)nc3c2CCC3)n1 (single isomer, unassigned) [Compound 729b, (R) or (S)-4-Chloro-1-ethyl-N′-((3-methyl-2-(trifluoromethyl)-6,7-dihydro-5H-cyclopenta[b]pyridin-4-yl)carbamoyl)-1H-pyrazole-3-sulfonimidamide]

IC50 [5]: 1 to 5 µM
SMILES: CC(C)(O)c1csc(S(N)(=O)=NC(=O)Nc2cc(CC(F)(F)F)nc3c2CCC3)c1 (single isomer, unassigned) [Compound 607b, (R) or (S)-4-(2-Hydroxypropan-2-yl)-N′-((2-(2,2,2-trifluoroethyl)-6,7-dihydro-5H-cyclopenta[b]pyridin-4-yl)carbamoyl) thiophene-2-sulfonimidamide]

IC50 [6]: 5 to 30 µM
SMILES: CC(C)c1cncc(C(C)C)c1NC(=O)N=S(N)(=O)c1cnc(C(C)(C)O)s1 (single isomer, unassigned) [Compound 160b, (S) or (R)-N′-((3,5-diisopropylpyridin-4-yl)carbamoyl)-2-(2-hydroxypropan-2-yl)thiazole-5-sulfonimidamide]

IC50 [2]: 0.2 to 1 µM
SMILES: CC1(C)CCc2c1nc1c(c2NC(=O)N=S(N)(=O)c2sc(C(O)(CO)CO)nc2CO)CCC1 (single isomer, unassigned) [Example 777, (R) or (S)-N′-((3,3-dimethyl-1,2,3,5,6,7-hexahydrodicyclopenta[b,e]pyridin-8-yl)carbamoyl)-4-(hydroxymethyl)-2-(1,2,3-trihydroxypropan-2-yl)-thiazole-5-sulfonimidamide]

IC50 [5]: 5 to 30 µM
SMILES: Cc1c(C(F)(F)F)nc2c(c1NC(=O)N=S(N)(=O)c1cnn(C(F)F)c1)CCC2 (single isomer, unassigned) [Compound 617a, (R) or (S)-1-(Difluoromethyl)-N′-((3-methyl-2-(trifluoromethyl)-6,7-dihydro-5H-cyclopenta[b]pyridin-4-yl)carbamoyl)-1H-pyrazole-4-sulfonimidamide]

IC50 [6]: 0.04 to 0.2 µM | IC50 [4]: 0.008 to 0.04 µM
SMILES: CC1(C)CCc2c1nc1c(c2NC(=O)N=S(N)(=O)c2cnc(C(C)(O)CO)s2)CCC1 (single isomer, unassigned) [Compound 201a, (R, R) or (S, R) or (R, S) or (S, S)-2-(1,2-Dihydroxypropan-2-yl)-N′-((3,3-dimethyl-1,2,3,5,6,7-hexahydrodicyclopenta [b,e]pyridin-8-yl)carbamoyl) thiazole-5-sulfonimidamide]

IC50 [5]: 0.2 to 1 µM
SMILES: Cc1c(C(F)(F)F)nc2c(c1NC(=O)N=S(N)(=O)c1sc(C(C)(C)O)cc1F)CCC2 (stereo not shown) [Compound 632, 3-Fluoro-5-(2-hydroxypropan-2-yl)-N′-((3-methyl-2-(trifluoromethyl)-6,7-dihydro-5H-cyclopenta[b]pyridin-4-yl)carbamoyl)thiophene-2-sulfonimidamide]

IC50 [5]: 1 to 5 µM
SMILES: CC(C)(O)c1cc(F)c([S@@](N)(=O)=NC(=O)Nc2c3c(nc(C4CC4)c2C2CC2)CCC3)s1 [Compound 727a]

IC50 [3]: 0.2 to 1 µM
SMILES: CCn1cc(F)c(S(N)(=O)=NC(=O)Nc2c3c(nc4c2CC[C@@H]4C)CCC3)n1 (stereo partly drawn) [Example 616, 1-Ethyl-4-fluoro-N′-(((S)-3-methyl-1,2,3,5,6,7-hexahydrodicyclopenta[b,e]pyridin-8-yl)carbamoyl)-1H-pyrazole-3-sulfonimidamide]

IC50 [3]: 0.04 to 0.2 µM
SMILES: CCn1cc(F)c(S(N)(=O)=NC(=O)Nc2c(C)c(C(F)(F)F)nc3c2CCC3)n1 (stereo not shown) [Example 597, 1-Ethyl-4-fluoro-N′-((3-methyl-2-(trifluoromethyl)-6,7-dihydro-5H-cyclopenta[b]pyridin-4-yl)calbamoyl)-1H-pyrazole-3-sulfonimidamide]

IC50 [5]: 1 to 5 µM
SMILES: Cc1c(C2(F)CC2)nc2c(c1NC(=O)N=S(N)(=O)c1cc(C(C)(C)O)cs1)CCC2 (stereo not shown) [Compound 722]

IC50 [1]: 0.008 to 0.04 µM
SMILES: CCn1cc(F)c(S(N)(=O)=NC(=O)Nc2c3c(nc4c2CCC42CC2)CCC3)n1 (single isomer, unassigned) [Example 671, (R) or (S)-1-ethyl-4-fluoro-N′-((1′,5′,6′,7′-tetrahydro-2′H-spiro[cyclopropane-1,3′-dicyclopenta[b,e]pyridin]-8′-yl)carbamoyl)-1H-pyrazole-3-sulfonimidamide]

IC50 [3]: 0.2 to 1 µM
SMILES: CC1(C)CCc2c1nc1c(c2NC(=O)N=S(N)(=O)c2cc([C@](C)(O)CO)cs2)CCC1 (stereo partly drawn) [Example 623, 4-((S)-1,2-dihydroxypropan-2-yl)-N′-((3,3-dimethyl-1,2,3,5,6,7-hexahydrodicyclopenta[b,e]pyridin-8-yl)carbamoyl)thiophene-2-sulfonimidamide]

IC50 [6]: 5 to 30 µM
SMILES: Cc1nc2c(c(NC(=O)N=S(N)(=O)c3cnc(C(C)(C)O)s3)c1C(C)C)CCC2 (stereo not shown) [Compound 116, 2-(2-hydroxypropan-2-yl)-N′-((3-isopropyl-2-methyl-6,7-dihydro-5H-cyclopenta[b]pyridin-4-yl)carbamoyl)thiazole-5-sulfonimidamide]

IC50 [5]: 0.2 to 1 µM
SMILES: CCc1cc(F)c(S(N)(=O)=NC(=O)Nc2c3c(nc4c2CC[C@H]4C)CCC3)s1 (stereo partly shown) [Compound 720c]

IC50 (Homo sapiens, THP-1, Table B2, numeric bounds, read-out: hTHP-1 IC50): > 30 µM
SMILES: CC(C)(O)c1csc(S(N)(=O)=NC(=O)Nc2cc(CC(F)(F)F)nc3c2CCC3)c1 (single isomer, unassigned) [Compound 607a, (S) or (R)-4-(2-Hydroxypropan-2-yl)-N′-((2-(2,2,2-trifluoroethyl)-6,7-dihydro-5H-cyclopenta[b]pyridin-4-yl)carbamoyl) thiophene-2-sulfonimidamide]
